Source: patent publication US20250282734A1 (Bayer Aktiengesellschaft, priority 2021, published 2025)
Like-named read-outs stand apart in the source and are kept apart here. Marks after values point to notes of the source that are not given here.

How the values were obtained:
[1] = Solubility free acid vs. salt, shake-flask method (Example 12); assay type: physicochemical
[2] = Determination of exposure in rat after intragastric administration (Example 13); assay type: in vivo; settings: for AUC(0-t): female, plasma, po, read-out: AUC(0-tlast); for AUC(0-t) / AUC(0-tlast)norm / AUC(0-tlast): free acid in rat plasma
Protocol: Determination of exposure after intragastric application of test compounds was performed in female conscious rats with a body weight of 0.2 kg (minimum) to 0.25 kg (maximum). The test compounds were applied as bolus via intragastric probe to unfed female rats in solution or suspension in the vehicle ethanol/solutol/water (v/v/v 10/40/50).
At the indicated timepoints between 8 min and 24 h after dosing, 150 μl blood were sampled via a catheter from the vena jugularis. The samples were treated with K-EDTA as anticoagulant and stored cooled until further processing (refrigerator, 4° C.). The samples were centrifuged (15 min, 3000 rpm), then an aliquot of 100 μL was taken from the supernatant (plasma), precipitated by addition of 400 μL cold acetonitrile or methanol (abs.) and frozen at −20° C. over night. The samples were centrifuged (15 min, 3000 rpm), then 150 μL of the clear supernatant were taken for analytical testing. Analytics were performed using an Agilent 1200 HPLC-system with LCMS/MS detection.
The applied dose of cholinate according to the invention was adjusted as compared to free acid according to the difference in molecular weight. The resulting equivalent doses were used for comparison.

[3] = Solubility of cholinate vs free acid and other salts, shake-flask method (Example 14); assay type: physicochemical; settings: aqueous solvents, pH 4.5 and above, FeSSIF and FaSSIF
Protocol: (§1) Preparation of FaSSIF (Fasted State Simulated Intestinal Fluid) blank solution: 4.2 g NaOH, 44.7 g NaH2PO4*2 H2O, and 61.86 g NaCl were dissolved in approximately 9.5 L demineralized water. Then, the pH of this solution was adjusted to 6.50+/−0.05 using HCl or NaOH, respectively. In the last step, the final volume was adjusted to 10.0 L by the addition of demineralized water.
Preparation of the final FaSSIF solution: 4.48 g SIF (Simulated Intestinal Fluids) powder (provider: biorelevant.com, Product code: FFF01 (May 2022)) were dissolved in approximately 500 mL FaSSIF blank solution, then the final volume was adjusted to 2.0 L by the addition of FaSSIF blank solution. After 2 hours, the solution was considered to be ready to use and was used within 48 hours.
as §1, with “FeSSIF (Fed” for “FaSSIF (Fasted”, “40.4” for “4.2”, “118.74” for “44.7”, “NaCl,” for “NaH2PO4*2 H2O,”, “82.4 mL glacial acetic acid” for “61.86 g NaCl”, “5.00+/−0.05” for “6.50+/−0.05”
Preparation of the final FeSSIF solution: 22.4 g SIF powder (provider: biorelevant.com, Product code: FFF01 (May 2022)) were dissolved in approximately 500 mL FeSSIF blank solution, then the final volume was adjusted to 2.0 L by the addition of FeSSIF blank solution. The solution was considered to be ready to use immediately after manufacturing and was used within 48 hours.

[4] = Hygroscopy, dynamic vapour sorption (DVS) isotherms (Example 15); assay type: physicochemical; settings: for Change in mass [%], Desorption / Change in mass [%], Sorption: listed as Cholinate Form A
Protocol: Water sorption isotherms were determined using a DVS Resolution gravimetric sorption analyzer (London, UK), or a DVS Intrinsic instrument (Surface measurement Systems). The sample was dried for 1000 minutes at 0% relative humidity (R.H.). Afterwards the dry weight was recorded. […] The equilibrium criterion for each relative humidity set point was 0.002% per minute relative mass change as a function of time.

[5] = Dissolution profile, flow through cell in FeSSIF / FaSSIF (Example 16); assay type: physicochemical; settings: micronized samples
Protocol: Prior to the measurements, the samples were micronized using a jet mill (MC DECJET 30) under nitrogen, with a pressure of 4.5 Bar for the injector and 4.0 Bar grinding pressure.
Dissolution rates of the drug substance were then determined using a flow through cell (FTC) from Sotax. All experiments were conducted in triplicates.
Then, the respective medium (FaSSIF or FeSSIF) was pumped through the cell with a pump rate of 2 mL/min for a total time of 14 minutes, resulting in a total volume of 28 mL. This volume was collected in time increments of 2 minutes, leading to 7 collected fractions with 4 mL each. The drug substance concentration of each fraction was determined by HPLC (external standard).

[6] = Thermodynamic stability of polymorphic form; assay type: physicochemical

SMILES: O=C(O)c1cc(NC(=O)C2(c3ccc(C(F)(F)F)cc3F)CC2)ccc1-c1cnn(C2CCC2)c1 [cholinate, 2-hydroxy-N,N,N-trimethylethanaminium 2-(1-cyclobutyl-1H-pyrazol-4-yl)-5-[({1-[2-fluoro-4-(trifluoromethyl)phenyl]cyclopropyl}carbonyl)amino]benzoate]
- solubility ([1]; 0.1M HCl, 25 °C, simulated gastric fluid, thermodynamic from solid, 0.1M HCl, 25° C., read-out: Solubility): < 1 µg/mL
- solubility ([1]; Acetone, 25° C.): 412 µg/mL
- solubility ([1]; Acetonitrile, 25° C.): 3797 µg/mL
- solubility ([1]; Ethanol, 25° C.): >12500 µg/mL
- solubility ([1]; PEG 400, 25° C.): 19159 µg/mL
- solubility ([1]; Phosphate buffer pH 8, 25° C.): 10798 µg/mL
- solubility ([1]; Solutol/Ethanol/Water (40/10/50 V/V/V), 25° C.): >35000 µg/mL
- solubility ([1]; Water, 25° C., stirred overnight): >12500** mg/L
- solubility ([1]; acetate buffer, 25 °C, pH 4.5, aqueous buffer, thermodynamic from solid, Acetate buffer pH 4.5, 25° C., read-out: Solubility): 2 µg/mL
- pH of the clear solution ([1]; solubility test in water, pH of water before stirring: 5.57): **pH of the clear solution: 8.32, pH of water before stirring: 5.57
- AUC(0-t) ([2]; rat, 10 mg/kg, dose equiv. 10 mg/kg): 60 µg·h/mL
- AUC(0-t) ([2]; rat, 248 mg/kg, dose equiv. 248 mg/kg): 745 µg·h/mL
- AUC(0-t) ([2]; rat, 495 mg/kg, dose equiv. 495 mg/kg): 1000 µg·h/mL
- AUC(0-tlast)norm ([2]; dose equiv. 10 mg/kg): 6 kg·h/L
- AUC(0-tlast) ([2]; dose equiv. 30 mg/kg): 146 µg·h/mL
- AUC(0-tlast)norm ([2]; dose equiv. 30 mg/kg): 4.8 kg·h/L
- AUC(0-tlast) ([2]; dose equiv. 100 mg/kg): 447 µg·h/mL
- AUC(0-tlast)norm ([2]; dose equiv. 100 mg/kg): 4.5 kg·h/L
- AUC(0-tlast)norm ([2]; dose equiv. 248 mg/kg): 3 kg·h/L
- AUC(0-tlast)norm ([2]; dose equiv. 495 mg/kg): 2 kg·h/L
- Increase of plasma exposure of free acid with dose ([2]; rat, doses above 30 mg/kg, listed as cholinate salt): dose-proportional increase of exposure up to a dose of approximately 100 mg/kg
- aqueous solubility, comparison in words [3]: higher solubility than the amorphous or partially crystalline salts
- Change in mass [%], Desorption ([4]; 0% Relative humidity): −0.14%
- Change in mass [%], Sorption ([4]; 0% Relative humidity): 0.00%
- Change in mass [%], Desorption ([4]; 10% Relative humidity): 2.50%
- Change in mass [%], Sorption ([4]; 10% Relative humidity): 0.36%
- Change in mass [%], Desorption ([4]; 20% Relative humidity): 3.59%
- Change in mass [%], Sorption ([4]; 20% Relative humidity): 0.56%
- Change in mass [%], Desorption ([4]; 30% Relative humidity): 5.08%
- Change in mass [%], Sorption ([4]; 30% Relative humidity): 0.75%
- Change in mass [%], Desorption ([4]; 40% Relative humidity): 6.98%
- Change in mass [%], Sorption ([4]; 40% Relative humidity): 0.95%
- Change in mass [%], Desorption ([4]; 50% Relative humidity): 9.30%
- Change in mass [%], Sorption ([4]; 50% Relative humidity): 1.21%
- Change in mass [%], Desorption ([4]; 60% Relative humidity): 12.14%
- Change in mass [%], Sorption ([4]; 60% Relative humidity): 1.61%
- Change in mass [%], Desorption ([4]; 70% Relative humidity): 16.02%
- Change in mass [%], Sorption ([4]; 70% Relative humidity): 2.11%
- Change in mass [%], Desorption ([4]; 80% Relative humidity): 21.87%
- Change in mass [%], Sorption ([4]; 80% Relative humidity): 3.05%
- Change in mass [%], Desorption ([4]; 90% Relative humidity): 33.33%
- Change in mass [%], Sorption ([4]; 90% Relative humidity): 18.30%
- Change in mass [%], Desorption ([4]; 95% Relative humidity): 46.21%
- Change in mass [%], Sorption ([4]; 95% Relative humidity): 46.21%
- Hygroscopicity, comparison in words ([4]; in particular at 30-50% relative humidity): less hygroscopic than the other salts
- DVS Dm @ 30% R.H. (Sorption) ([4]; summarized results, 30% R.H.): 0.8%
- DVS Dm @ 50% R.H. (Sorption) ([4]; summarized results, 50% R.H.): 1.2%
- DVS Dm @ 80% R.H. (Sorption) ([4]; summarized results, 80% R.H.): 3.1%
- Dissolution profile, comparison in words [5]: better dissolution profile than the other salts
- Thermodynamic stability of the solid form [6]: thermodynamically stable at room temperature and at least up to 35 °C
